The target in experiment [1] is T1, C5a receptor (Homo sapiens, UniProt P21730).
T1 sequence (P21730 1-350): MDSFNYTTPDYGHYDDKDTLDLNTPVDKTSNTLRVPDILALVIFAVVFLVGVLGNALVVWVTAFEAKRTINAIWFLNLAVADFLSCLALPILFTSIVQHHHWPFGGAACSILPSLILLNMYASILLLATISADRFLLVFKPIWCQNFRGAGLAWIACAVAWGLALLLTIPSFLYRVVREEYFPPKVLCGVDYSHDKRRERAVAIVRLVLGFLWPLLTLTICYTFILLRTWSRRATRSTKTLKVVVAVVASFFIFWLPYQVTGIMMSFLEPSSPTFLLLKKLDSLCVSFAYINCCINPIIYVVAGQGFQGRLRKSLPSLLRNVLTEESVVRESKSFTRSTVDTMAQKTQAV
Description: Calcium Mobilization Assay (C5a-induced Ca2+ mobilization, FLIPR, differentiated U937 cells). The experiment is classed as cell-based. Also noted: endogenous in cells; host or cells: U937 cells differentiated with dibutyryl cAMP. The conditions noted are these: […] recombinant human C5a, 20 min pre-incubation, multiple values = duplicate experiments, read-out: C5a Induced Ca Mobil. Average IC50. The essentials: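 Differentiated U937 cells (1 mM dibutyryl cAMP, 2–3 days) loaded with Fluo-3AM, pre-incubated with compound 20 min at room temperature (1% DMSO), then stimulated with 1.5 nM recombinant human C5a. Intracellular Ca2+ fluorescence recorded on FLIPR each second to 2 min post-addition; maximal fluorescence used.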
Background: Calcium assays in cells follow changes in intracellular calcium, usually with a dye or a luminescent sensor.

Experiment [2] has as its target T1, C5a receptor. As to the kind of experiment: [125I]-C5a Radioligand Binding Assay (competition binding, differentiated U937 cells).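 Further: cells preincubated with compound 30 min at room temperature, then 60 min at 4 °C with radioligand, bound counts read by scintillation, nonspecific binding defined with 100 nM C5a.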 As to conditions: [125I]-C5a 0.05 nM, U937 cells, multiple values = duplicate experiments.
In experiment [3] the target is T1, C5a receptor. Description: biochemical.

For orientation: IC50 means the midpoint of a concentration-inhibition curve. The term inhibition denotes the share of the control response that was lost under treatment. In general, Ki refers to the equilibrium dissociation constant of an inhibitor or competing ligand from its target. A high value points to a looser hold on the target.

Molecules are shown by their SMILES.

As for `CCc1cccc(CC)c1-c1cc(OC)c2c(n1)CCCC2N(C)Cc1cccc2ccccc12` (stereo not drawn) [Compound 90], the half-maximal inhibitory concentration (IC50) in experiment [1] was above 10000 nM. For the same molecule, in experiment [2] (read-out: [125I]-C5a Binding % Inhibition 1 μM, test compound 1 μM), the inhibition at 1 µM is 87%. Also, the inhibition at 10 µM in experiment [2] (read-out: [125I]-C5a Binding % Inhibition 10 μM, test compound 10 μM) is 86%. Moreover, the “[125I]-C5a Binding % Inhibition 1 μM” value in experiment [2] (test compound 1 μM) is recorded as 71%. The “[125I]-C5a Binding % Inhibition 10 μM” value in experiment [2] (test compound 10 μM) is 84%. For the same molecule, affinity in experiment [3] was put at a Ki of 409 nM.
